Data from patent publication US6103751A, “Carotene analogs of porphyrins, chlorins and bacteriochlorins as therapeutic and diagnostic agents” (Health Research, Inc., priority 1998, dated 2000).

Key:
[1] = Singlet oxygen production in oxygen saturated toluene, singlet oxygen phosphorescence at 1270 nm; assay type: physicochemical; conditions: for singlet oxygen production: phosphorescence at 1270 nm
Procedure: The carboxylic acid functionality was first activated by preparing carbodiimide analog (in situ) before condensing with amino carotene. The structure of the conjugate was confirmed by NMR and mass spectrometry. The singlet oxygen production by HPPH and its carotene conjugate was measured in oxygen saturated toluene solutions by monitoring the singlet oxygen phosphorescence at 1270 nm. […] Thus, a complete photoprotection was achieved.

RIF tumor = experiment: In vivo photosensitizing activity (tumor response after laser illumination); design: species or system C3H mice
Procedure: Preliminary In Vivo Activity:
RIF rumors were implanted subcutaneously into the axilla of 5-7 week old female C3H mice. When tumors grew to about 5 mm diameter, mice were injected with photosensitizers at various doses. The mice (6 mice/group) were restrained in aluminum holders and each tumor illuminated with 135 J/cm^2 light from a laser tuned at the longest wavelength absorption maximum of the photosensitizers. The percentage of short-term control was recorded daily.
*Six mice/group (RIF tumor). 1.0 μmol/kg, 705 nm, 135 J/cm^2 (24 h
*Six mice/group (RIF tumor). 135 J/cm^2

[2] = Fluorescence spectroscopy in dichloromethane; assay type: physicochemical
Procedure: Fluorescence Spectroscopy:
The fluorescence spectra of HPPH 2, purpurin-imide 4 and their corresponding carotene conjugates 3 and 6 were measured in dichloromethane. In the case of HPPH and its carotenoid analog, excitation at 660 nm gave strong emission at 670 nm. Similarly, purpurin imide and its carotenoid analog on excitation at 705 nm produced emission at 715 nm. Due to their strong fluorescence, and higher uptake in tumors, these compounds show great potential for use as diagnostic agents for malignant and non-malignant tumors.

[3] = system: radiation induced fibrosarcoma (RIF) tumor; experiment: Tumor uptake by in vivo reflection spectroscopy; design: species or system C3H mice; conditions: 5 micro mole/Kg; tumor vs skin fold; 3 h and 24 h post injection
Procedure: Determination of Tumor Uptake by In Vivo Reflection Spectroscopy:
The tumor uptake of the parent photosensitizer 2 (HPPH), FIG. 1, and purpurin with a fused imide ring 4, FIG. 2, were compared to the corresponding carotene conjugate 3 and 6 by in vivo reflection spectroscopy.
For these experiments, C3H mice with an axillary radiation induced fibrosarcoma (RIF) tumor were injected with the drug in an amount of 5 micro mole/Kg of body weight and the in vivo absorption specta were taken at various time intervals. FIGS. 3 and 4 respectively show the uptake of HPPH 2 and purpurin-imide 4 at 24 h post injection. FIGS. 5 and 6 show the uptake of the HPPH-carotene conjugate at 3 h and 24 h post injection.

[4] = Partition Coefficient (log P); assay type: physicochemical

For `CCCCCCOC(C)c1c(C)c2cc3nc(c4c5[nH]c(cc6nc(cc1[nH]2)C(C)=C6CC)c(C)c5C(=O)C4)[C@@H](CCC(=O)O)[C@@H]3C` (stereo partly shown) [HPPH (2), Hexyl ether analog of pyropheophorbide-a, reference compound], the “fluorescence yield (Φf)” value [1] was 0.48, the “singlet oxygen yield (ΦΔ)” value ([1]; oxygen saturated toluene) was 0.45 and the singlet oxygen production ([1]; oxygen saturated toluene) was “Ample production”. The “% TUMOR RESPONSE day 1-2” value (RIF tumor; 0.47 μmol/kg, 665 nm, 24 between inj. & treatment, 135 J/cm^2, day 1-2, Table 2) was 100%, the “% TUMOR RESPONSE day 7” value (RIF tumor; 0.47 μmol/kg, 665 nm, 24 between inj. & treatment, 135 J/cm^2, day 7, Table 2) was 100% and the “% TUMOR RESPONSE day 30” value (RIF tumor; 0.47 μmol/kg, 665 nm, 24 between inj. & treatment, 135 J/cm^2, day 30, Table 2) was 50%. The “% TUMOR RESPONSE day 90” value (RIF tumor; 0.47 μmol/kg, 665 nm, 24 between inj. & treatment, 135 J/cm^2, day 90, Table 2) was 50%, the “% TUMOR RESPONSE day 21” value (RIF tumor; 0.47 umol/kg, 504 h) was 80% and the fluorescence emission wavelength ([2]; excitation at 660 nm) was 670 nm.
For `CCCCCCOC(C)c1c(C)c2cc3nc(c4c5[nH]c(cc6nc(cc1[nH]2)C(C)=C6CC)c(C)c5C(=O)C4)[C@@H](CCC(=O)Nc1ccc(/C=C/C(C)=C/C=C/C(C)=C/C=C/C=C(C)/C=C/C=C(C)/C=C/C2=C(C)CCCC2(C)C)cc1)[C@@H]3C` (stereo partly shown) [HPPH-carotene (3)], the singlet oxygen production ([1]; oxygen saturated toluene) was “did not produce singlet oxygen”, the “tumor uptake compared to parent compound” value [3] was “significant uptake of the drug in the tumor vs the skin fold” and the “TUMOR RESPONSE (all days)” value (RIF tumor; 0.47 μmol/kg, 665 nm, 24 between inj. & treatment, 135 J/cm^2, Table 2) was “NO RESPONSE”. For the same molecule, the fluorescence emission wavelength ([2]; excitation at 660 nm) was 670 nm.
In the case of `CCCCCCOC(C)c1c(C)c2cc3nc(c4c5[nH]c(cc6nc(cc1[nH]2)C(C)=C6CC)c(C)c5C(=O)N(CCC)C4=O)[C@@H](CCC(=O)OC)[C@@H]3C` (stereo partly shown) [Hexyl Propyl], the “Tumor Response day 7” value (RIF tumor; 0.5 μmol, 705 nm, 135 J/cm^2, 24 h post injection, day 7, Table 1) was 66%, the “Tumor Response day 14” value (RIF tumor; 0.5 μmol, 705 nm, 135 J/cm^2, 24 h post injection, day 14, Table 1) was 33% and the “Tumor Response day 21” value (RIF tumor; 0.5 μmol, 705 nm, 135 J/cm^2, 24 h post injection, day 21, Table 1) was 17%. For the same molecule, the “Tumor Response day 30” value (RIF tumor; 0.5 μmol, 705 nm, 135 J/cm^2, 24 h post injection, day 30, Table 1) was 17%, the “Tumor Response day 90” value (RIF tumor; 0.5 μmol, 705 nm, 135 J/cm^2, 24 h post injection, day 90, Table 1) was 17% and the “Tumor Response days 1-2” value (RIF tumor; 0.5 μmol, 705 nm, 135 J/cm^2, 24 h post injection, Table 1) was 100%. It also gave a logP [4] of 8.72.
`CCCCCCN1C(=O)c2c3nc(cc4[nH]c(cc5nc(cc6[nH]c2c(c6C)C1=O)C(CC)=C5C)c(C(C)OC)c4C)[C@@H](C)[C@@H]3CCC(=O)OC` (stereo partly shown) [Methyl Hexyl] gave a logP [4] of 7.72.
In the case of `CCCN1C(=O)c2c3nc(cc4[nH]c(cc5nc(cc6[nH]c2c(c6C)C1=O)C(CC)=C5C)c(C(C)OC)c4C)[C@@H](C)[C@@H]3CCC(=O)OC` (stereo partly shown) [Methyl Propyl], the logP [4] was 6.22.
For `CCCCCCN1C(=O)c2c3nc(cc4[nH]c(cc5nc(cc6[nH]c2c(c6C)C1=O)C(CC)=C5C)c(C(C)OCCC)c4C)[C@@H](C)[C@@H]3CCC(=O)OC` (stereo partly shown) [Propyl Hexyl], the logP [4] was 8.72.
`CCCOC(C)c1c(C)c2cc3nc(c4c5[nH]c(cc6nc(cc1[nH]2)C(C)=C6CC)c(C)c5C(=O)N(CCC)C4=O)[C@@H](CCC(=O)OC)[C@@H]3C` (stereo partly shown) [Propyl Propyl] gave a logP [4] of 7.22.
For `CCCCCCCOC(C)c1c(C)c2cc3nc(c4c5[nH]c(cc6nc(cc1[nH]2)C(C)=C6CC)c(C)c5C(=O)N(CCCCCC)C4=O)[C@@H](CCC(=O)OC)[C@@H]3C` (stereo partly shown) [Purpurin-imide (4), heptyl ether analog of N-hexyl purpurin imide], the “% TUMOR RESPONSE day 7” value (RIF tumor; 1.0 μmol/kg, 705 nm, 24 between inj. & treatment, 135 J/cm^2, day 7, Table 2) was 100%, the “% TUMOR RESPONSE day 21” value (RIF tumor; 1.0 μmol/kg, 705 nm, 24 between inj. & treatment, 135 J/cm^2, day 21, Table 2) was 100% and the “% TUMOR RESPONSE day 30” value (RIF tumor; 1.0 μmol/kg, 705 nm, 24 between inj. & treatment, 135 J/cm^2, day 30, Table 2) was 100%. The “% TUMOR RESPONSE day 90” value (RIF tumor; 1.0 μmol/kg, 705 nm, 24 between inj. & treatment, 135 J/cm^2, day 90, Table 2) was 83%, the “Tumor Response days 1-2” value (RIF tumor; 1.0 μmol/kg, 705 nm, 135 J/cm^2, 24 h post injection, Table 1) was 100% and the “mice tumor free on day 90” value (RIF tumor; 1.0 μmol/kg, 705 nm, 135 J/cm^2, day 90) was 5/6. The “in vivo activity among the compounds tested” value (RIF tumor; dose of 1.0 μmol/kg) was “most effective” and the fluorescence emission wavelength ([2]; excitation at 705 nm) was 715 nm.
With `CCCCCCCOC(C)c1c(C)c2cc3nc(c4c5[nH]c(cc6nc(cc1[nH]2)C(C)=C6CC)c(C)c5C(=O)N(CCCCCC)C4=O)[C@@H](CCC(=O)Nc1ccc(/C=C/C(C)=C/C=C/C(C)=C/C=C/C=C(C)/C=C/C=C(C)/C=C/C2=C(C)CCCC2(C)C)cc1)[C@@H]3C` (stereo partly shown) [Purpurin-imide-carotene (6)] the “TUMOR RESPONSE (all days)” value (RIF tumor; 1.0 μmol/kg, 705 nm, 24 between inj. & treatment, 135 J/cm^2, Table 2) was “NO RESPONSE” and the fluorescence emission wavelength ([2]; excitation at 705 nm) was 715 nm.
